{"source": "patent US12220440B2", "about": "“Drug composition, method for treating infection, disinfecting composition, and drug adjuvant” (priority 2022, dated 2025)", "type_in_all_cases": "cell-based", "key": {"[1]": {"tested_on": "E. coli (colistin-resistant)", "assay": "MIC, colistin-resistant E. coli clinical isolates, with and without otilonium bromide", "details": "Escherichia coli"}, "S. Typhimurium PY01": {"tested_on": "S. Typhimurium PY01", "assay": "MIC, colistin-susceptible S. Typhimurium, with and without otilonium bromide", "details": "Salmonella enterica"}, "E. coli J53": {"tested_on": "E. coli J53", "assay": "MIC checkerboard dilution assay, otilonium bromide vs. colistin", "details": "Escherichia coli"}, "[2]": {"tested_on": "P. aeruginosa PAO1 and PAERC 11.603", "assay": "Divalent ion MIC-dependency in supplemented MHB", "experimental": "In FIGS. 5e and 5f, colistin MICs of P. aeruginosa PAO1 and PAERC 11.603, respectively, are determined in MHB supplemented with different Ca^2+ ion concentrations.\nAccordingly, it is believed that the addition of a chelant; or a chelant for divalent ions; or a divalent cation chelant, may further improve the activity of the drug formulation, method of use/treatment, disinfection composition, etc. of the present invention."}, "[3]": {"tested_on": "A. baumannii (colistin-resistant)", "assay": "MIC, colistin-resistant A. baumannii isolates, with and without otilonium bromide", "details": "for MIC: Acinetobacter baumannii"}, "A. baumannii 17978": {"tested_on": "A. baumannii 17978", "assay": "Killing of starvation-induced tolerant cells", "details": "with otilonium bromide, 24-hour treatment", "experimental": "(§1) Starvation-induced bacterial sub-population tolerant cells of colistin-resistant and colistin-susceptible E. coli and A. baumannii strains are tested against the bactericidal effect of the combination of otilonium bromide and colistin. […] The incubation temperature is 37° C. Ob and colistin are added at the same time."}, "[4]": {"tested_on": "colistin-susceptible E. coli J53", "assay": "Killing of starvation-induced tolerant cells", "details": "with otilonium bromide, 24-hour treatment", "experimental": "as §1"}, "[5]": {"tested_on": "mcr-1-bearing E. coli J53", "assay": "microbe, parasite or virus in culture", "details": "20 μg/ml of otilonium bromide", "description": "E. coli J53 strain carrying a natural mcr-1-bearing IncI2 plasmid (33 kb, KX711706.1) is used to screen and identify colistin adjuvants which could enhance the antibacterial activity of colistin."}, "mcr-1-bearing E. coli": {"tested_on": "mcr-1-bearing E. coli", "assay": "LIVE/DEAD cell viability assay, fluorescence microscopy", "details": "8 μg/ml of colistin alone", "experimental": "Fluorescence microscopy quantifies the number of live and dead cells and determines the degree of reduction in colistin concentration in the drug combination required for effective eradication of the test organism. […] However, in the presence of 20 μg/ml of otilonium bromide, 4 μg/ml of colistin eradicates >97% of the bacteria."}, "[6]": {"tested_on": "mcr-1-bearing E. coli J53", "assay": "SYTOX Green membrane permeability staining", "details": "each drug individually", "description": "SYTOX™ Green (available from ThermoFisher Scientific) staining analysis assesses the membrane permeability of colistin-resistant E. coli before and after treatment with the colistin and otilonium bromide combination. SYTOX Green is a green-fluorescent nucleotide dye used to test membrane permeability and membrane integrity. Green fluorescence is detected by fluorescence spectrometer when bacterial cell integrity is destroyed and membrane permeability increases."}, "[7]": {"tested_on": "mcr-1-bearing E. coli J53", "assay": "Ca2+ / Mg2+ MIC-dependency in cation-supplemented MHB", "details": "37° C., 16 hours", "experimental": "Accordingly, the effect of divalent ions on the antibacterial activity of otilonium bromide and colistin is investigated. […] For FIGS. 5a-5b, E. coli J53 expressing MCR-1 is treated with colistin and colistin+Ob as indicated in Mueller Hinton II Broth (MHB) that is cation-adjusted; i.e., supplemented with different concentrations of Mg^2+ and Ca^2+ ions). The incubation is conducted at 37° C. for 16 hours."}, "E. coli Bw25113": {"tested_on": "E. coli Bw25113", "assay": "MIC, colistin-susceptible E. coli, with and without otilonium bromide", "details": "Escherichia coli"}, "[8]": {"details": "colistin alone, read-out: Colistin MIC, Colistin"}, "[9]": {"details": "in the presence of 10 ug/ml Ob, read-out: Colistin MIC, Colistin + 10 ug/ml Ob"}, "[10]": {"details": "in the presence of 20 ug/ml Ob, read-out: Colistin MIC, Colistin + 20 ug/ml Ob"}}, "note": "Read-outs that look alike come from different tables or passages of the source. Peptide text beside a SMILES is read from it.", "data": [{"smiles": "CCC(C)CCCC(=O)N[C@@H](CCN)C(=O)N[C@H](C(=O)N[C@@H](CCN)C(=O)N[C@H]1CCNC(=O)[C@H]([C@@H](C)O)NC(=O)[C@H](CCN)NC(=O)[C@H](CCN)NC(=O)[C@H](CC(C)C)NC(=O)[C@@H](CC(C)C)NC(=O)[C@H](CCN)NC1=O)[C@@H](C)O", "note": "(stereo partly drawn) [Colistin] (HELM PEPTIDE1{[CCC(C)CCCC(=O)[*:2]].[Dab].T.[Dab].[Dab].[Dab].[dL].L.[Dab].[Dab].T}$PEPTIDE1,PEPTIDE1,5:R3-11:R2$$$V2.0)", "values": [{"measurement": "MIC", "setting": "[1]; E. coli WZ3906, colistin-resistant, colistin alone, read-out: Colistin MIC, Colistin", "result": 8, "unit": "µg/mL"}, {"measurement": "MIC", "setting": "[1]; E. coli WZ3906, colistin-resistant, in the presence of 10 ug/ml Ob, read-out: Colistin MIC, Colistin + 10 ug/ml Ob", "result": 4, "unit": "µg/mL"}, {"measurement": "MIC", "setting": "[1]; E. coli WZ3906, colistin-resistant, in the presence of 20 ug/ml Ob, read-out: Colistin MIC, Colistin + 20 ug/ml Ob", "result": 1, "unit": "µg/mL"}, {"measurement": "MIC", "setting": "[1]; E. coli WZ3920, colistin-resistant, colistin alone, read-out: Colistin MIC, Colistin", "result": 4, "unit": "µg/mL"}, {"measurement": "MIC", "setting": "[1]; E. coli WZ3920, colistin-resistant, in the presence of 10 ug/ml Ob, read-out: Colistin MIC, Colistin + 10 ug/ml Ob", "result": 2, "unit": "µg/mL"}, {"measurement": "MIC", "setting": "[1]; E. coli WZ3920, colistin-resistant, in the presence of 20 ug/ml Ob, read-out: Colistin MIC, Colistin + 20 ug/ml Ob", "result": "≤ 0.25", "unit": "µg/mL"}, {"measurement": "MIC", "setting": "[1]; E. coli WZ3951, colistin-resistant, colistin alone, read-out: Colistin MIC, Colistin", "result": 16, "unit": "µg/mL"}, {"measurement": "MIC", "setting": "[1]; E. coli WZ3951, colistin-resistant, in the presence of 10 ug/ml Ob, read-out: Colistin MIC, Colistin + 10 ug/ml Ob", "result": 8, "unit": "µg/mL"}, {"measurement": "MIC", "setting": "[1]; E. coli WZ3951, colistin-resistant, in the presence of 20 ug/ml Ob, read-out: Colistin MIC, Colistin + 20 ug/ml Ob", "result": 2, "unit": "µg/mL"}, {"measurement": "MIC", "setting": "[1]; E. coli WZ3955, colistin-resistant, colistin alone, read-out: Colistin MIC, Colistin", "result": 8, "unit": "µg/mL"}, {"measurement": "MIC", "setting": "[1]; E. coli WZ3955, colistin-resistant, in the presence of 10 ug/ml Ob, read-out: Colistin MIC, Colistin + 10 ug/ml Ob", "result": 4, "unit": "µg/mL"}, {"measurement": "MIC", "setting": "[1]; E. coli WZ3955, colistin-resistant, in the presence of 20 ug/ml Ob, read-out: Colistin MIC, Colistin + 20 ug/ml Ob", "result": 1, "unit": "µg/mL"}, {"measurement": "MIC", "setting": "[1]; E. coli X2169, colistin-resistant, colistin alone, read-out: Colistin MIC, Colistin", "result": 16, "unit": "µg/mL"}, {"measurement": "MIC", "setting": "[1]; E. coli X2169, colistin-resistant, in the presence of 10 ug/ml Ob, read-out: Colistin MIC, Colistin + 10 ug/ml Ob", "result": 4, "unit": "µg/mL"}, {"measurement": "MIC", "setting": "[1]; E. coli X2169, colistin-resistant, in the presence of 20 ug/ml Ob, read-out: Colistin MIC, Colistin + 20 ug/ml Ob", "result": 2, "unit": "µg/mL"}, {"measurement": "MIC", "setting": "S. Typhimurium PY01; [8]", "result": 2, "unit": "µg/mL"}, {"measurement": "MIC", "setting": "S. Typhimurium PY01; [9]", "result": 0.125, "unit": "µg/mL"}, {"measurement": "MIC", "setting": "S. Typhimurium PY01; [10]", "result": 0.03, "unit": "µg/mL"}, {"measurement": "MIC", "setting": "E. coli J53; 10 μg/ml of otilonium bromide", "result": "≤ 0.016", "unit": "µg/mL"}, {"measurement": "MIC", "setting": "E. coli J53; colistin alone", "result": 1, "unit": "µg/mL"}, {"measurement": "effect of supplemented Ca2+ and Mg2+ on MIC", "setting": "[2]", "result": "increase the MIC"}, {"measurement": "Colistin MIC, Colistin", "setting": "[3]; A. baumannii ABJZ-46, colistin-resistant, colistin alone", "result": 4, "unit": "µg/mL"}, {"measurement": "Colistin MIC, Colistin", "setting": "[3]; A. baumannii ABJZ-50, colistin-resistant, colistin alone", "result": 4, "unit": "µg/mL"}, {"measurement": "Colistin MIC, Colistin", "setting": "[3]; A. baumannii ABJZ-72, colistin-resistant, colistin alone", "result": 4, "unit": "µg/mL"}, {"measurement": "MIC", "setting": "[3]; ATCC17978, read-out: Colistin MIC, Colistin + 10 ug/ml Ob, A. baumannii ATCC17978, colistin-resistant, in the presence of 10 ug/ml Ob", "result": 0.125, "unit": "µg/mL"}, {"measurement": "MIC", "setting": "[3]; read-out: Colistin MIC, Colistin + 10 ug/ml Ob, A. baumannii ABJZ-45, colistin-resistant, in the presence of 10 ug/ml Ob", "result": 0.0625, "unit": "µg/mL"}, {"measurement": "MIC", "setting": "[3]; read-out: Colistin MIC, Colistin + 10 ug/ml Ob, A. baumannii ABJZ-46, colistin-resistant, in the presence of 10 ug/ml Ob", "result": 0.5, "unit": "µg/mL"}, {"measurement": "MIC", "setting": "[3]; read-out: Colistin MIC, Colistin + 10 ug/ml Ob, A. baumannii ABJZ-50, colistin-resistant, in the presence of 10 ug/ml Ob", "result": 0.25, "unit": "µg/mL"}, {"measurement": "MIC", "setting": "[3]; read-out: Colistin MIC, Colistin + 10 ug/ml Ob, A. baumannii ABJZ-72, colistin-resistant, in the presence of 10 ug/ml Ob", "result": 0.125, "unit": "µg/mL"}, {"measurement": "MIC", "setting": "[3]; A. baumannii ABJZ-45, colistin-resistant, colistin alone, read-out: Colistin MIC, Colistin", "result": 4, "unit": "µg/mL"}, {"measurement": "MIC", "setting": "[3]; A. baumannii ATCC17978, colistin-resistant, colistin alone, read-out: Colistin MIC, Colistin", "result": 4, "unit": "µg/mL"}, {"measurement": "concentration of colistin required to completely eradicate tolerant sub-population", "setting": "A. baumannii 17978", "result": 1, "unit": "µg/mL"}, {"measurement": "concentration of colistin required to completely eradicate tolerant sub-population", "setting": "[4]", "result": 1, "unit": "µg/mL"}, {"measurement": "MIC", "setting": "[5]; Escherichia coli, read-out: colistin MIC (minimum inhibitory concentration), mcr-1-bearing E. coli J53", "result": 0.28, "unit": "µg/mL"}, {"measurement": "reduction in colistin MIC", "setting": "[5]; mcr-1-bearing E. coli J53", "result": 32, "unit": "fold"}, {"measurement": "live/dead state of cells", "setting": "mcr-1-bearing E. coli", "result": "most or all mcr-1-bearing E. coli strains were alive"}, {"measurement": "SYTOX Green fluorescence (membrane permeability)", "setting": "[6]", "result": "significant increase in fluorescence"}, {"measurement": "effect of supplemented Ca2+ and Mg2+ on MIC", "setting": "[7]", "result": "increase the MIC"}, {"measurement": "MIC", "setting": "E. coli Bw25113; [8]", "result": 2, "unit": "µg/mL"}, {"measurement": "MIC", "setting": "E. coli Bw25113; [9]", "result": 0.03, "unit": "µg/mL"}, {"measurement": "MIC", "setting": "E. coli Bw25113; [10]", "result": "≤ 0.015", "unit": "µg/mL"}]}]}
